Results on 15 compounds are retold here after patent publication US7012078B2, “2-aminopyridines containing fused ring substituents” (Pfizer Inc., priority 1997, dated 2006).

Molecules are shown by their SMILES. Where a name gives a salt, the structure may show the parent alone.

In general, melting point refers to the temperature of the solid-liquid transition. In turn, `COc1cc2c(cc1OC)CN(CCOc1ccc(-c3cccc(N)n3)c3ccccc13)CC2` (as salt: hydrochloride) [Example 15, 6-{4-[2-(6,7-Dimethoxy-3,4-dihydro-1H-isoquinolin-2-yl)-ethoxy]-naphthalen-1-yl}-pyridin-2-ylamine] gave a melting point of 130 to 150 °C.

As for `Nc1cccc(-c2ccc(OCCN3CC4C(N)C4C3)c3ccccc23)n1` (stereo not drawn) (as salt: hydrochloride) [Example 16, 3-{2-[4-(6-Amino-pyridin-2-yl)-naphthalen-1-yloxy]-ethyl}-3-aza-bicyclo[3.1.0]hex-6-ylamine], the melting point lay in the range of 140 to 155 °C.

On to `CN(C)CCCCOc1ccc(-c2cccc(N)n2)c2ccccc12` (as salt: hydrochloride) [Example 26, 6-[4-(4-Dimethylamino-butoxy)-naphthalen-1-yl]-pyridin-2-ylamine], for which the melting point was in the range of 78 to 90 °C.

On to `Nc1cccc(-c2ccc(OC3CCCCC3N)c3ccccc23)n1` (stereo not drawn) (as salt: hydrochloride) [Example 63, 6-[4-(2-Amino-cyclohexyloxy)-naphthalen-1-yl]-pyridin-2-ylamine], for which the melting point was 218 to 230 °C.

On to `Nc1cccc(-c2ccc(OCC3CCN3)c3ccccc23)n1` (stereo not drawn) (as salt: salt) [Example 71, 6-[4-(Azetidin-2-ylmethoxy)-naphthalen-1-yl]-pyridin-2-ylamine], for which the melting point fell in the range of 135 to 150 °C.

On to `Nc1cccc(-c2ccc(OC3CCNC3)c3ccccc23)n1` (stereo not drawn) (as salt: hydrochloride) [Example 28, 6-[4-(Pyrrolidin-3-yloxy)-naphthalen-1-yl]-pyridin-2-ylamine], for which the melting point was in the range of 60 to 70 °C.

In turn, `Nc1cccc(-c2ccc(OC3CCN(Cc4ccco4)C3)c3ccccc23)n1` (stereo not drawn) (as salt: hydrochloride) [Example 32, 6-[4-(1-Furan-2-ylmethyl-pyrrolidin-3-yloxy)-naphthalen-1-yl]-pyridin-2-ylamine] registered a melting point of 140 to 160 °C.

Compound `Nc1cccc(-c2ccc(CCNCc3cccc(Cl)c3)c3ccccc23)n1` (as salt: hydrochloride) [Example 9, 6-{4-[2-(3-Chloro-benzylamino)-ethyl]-naphthalen-1-yl}-pyridin-2-ylamine] had a melting point of 60 to 75 °C.

For `Nc1cccc(-c2ccc(OC3CN4CCC3CC4)c3ccccc23)n1` (stereo not drawn) (as salt: hydrochloride), the melting point fell in the range of 220 to 228 °C.

In turn, `Nc1cccc(-c2ccc(CCN3CCC(C(c4ccccc4)c4ccccc4)CC3)c3ccccc23)n1` (as salt: hydrochloride) [Example 3, 6-{4-[2-(4-Benzhydryl-piperidin-1-yl)-ethyl]-naphthalen-1-yl}-pyridin-2-ylamine] gave a melting point of 225 to 235 °C.

In turn, `Nc1cccc(-c2ccc(OC3CCN(Cc4ccco4)CC3)c3ccccc23)n1` (as salt: hydrochloride) [Example 30, 6-[4-(1-Furan-2-ylmethyl-piperidin-4-yloxy)-naphthalen-1-yl]-pyridin-2-ylamine] returned a melting point of 178 to 195 °C.

With `CC(C)N(CCOc1ccc(-c2cccc(N)n2)c2c1CCCC2)C(C)C` (as salt: hydrochloride) [Example 40, 6-[4-(2-Diisopropylamino-ethoxy)-5,6,7,8-tetrahydro-naphthalen-1-yl]-pyridin-2-ylamine], the melting point lay in the range of 50 to 60 °C.

Consider `Nc1cccc(-c2ccc(CCNCc3ccc(F)c(F)c3)c3ccccc23)n1` (as salt: hydrochloride) [Example 7, 6-{4-[2-(3,4-Difluoro-benzylamino)-ethyl]-naphthalen-1-yl}-pyridin-2-ylamine], for which the melting point is 70 to 80 °C.

For the compound `COc1cc2c(cc1OC)CN(CCc1ccc(-c3cccc(N)n3)c3ccccc13)CC2` [Example 4, 6-{4-[2-(6,7-Dimethoxy-3,4-dihydro-1H-isoquinolin-2-yl)-ethyl]-naphthalen-1-yl}-pyridin-2-ylamine], the melting point lay within 172 to 176 °C.

As to `CN1C2CCC1CC(Oc1ccc(-c3cccc(N)n3)c3ccccc13)C2` (stereo not drawn) (as salt: hydrochloride), the melting point was in the range of 260 to 275 °C.
